In patent US6335157B1, “Method based on localization of Hsp90 to the centrosome” (The European Molecular Biology Laboratory, priority 1999, dated 2002):

Test system: Hela and human epithelial kidney 293 cells
Assay: Geldanamycin treatment of cells, immunofluorescence staining with anti-α-tubulin, anti-γ-tubulin and anti-Hsp90 antibodies
Assay type: cell-based
Conditions: 1 μg/ml geldanamycin
Description: Geldanamycin specifically interferes with the function of Hsp90 by binding to the ATP binding site of Hsp90 (Prodromou et al., 1997, Cell 90:65-75; Stebbins et al., 1997, Cell 89:239-250). Hela and human epithelial kidney 293 cells were treated with 1 μg/ml geldanamycin for times ranging from […] (15 minutes, 30 minutes, 1 hour, 5 hours, 15 hours, 20 hours and 30 hours) and were stained with anti-α-tubulin, anti-γ-tubulin and anti-Hsp90 antibodies. […] However, aberrant mitotic spindles were detected from as early as 1 hour of treatment with geldanamycin. More than 50% of the mitotic figures produced in the presence of the drug after 20 hours of treatment contained aberrant mitotic figures in which the centrosomes, the spindles, and the distribution of chromatin were severely disrupted. […] The spindles of these cells were rather asymmetric, with unequal amounts of microtubules in each hemi-spindle and spindle poles very often detached from the centrosome. The aster microtubules which are organized around the centrosome were also abnormal in number and distribution. […] About 50% of the cells contained misaligned chromosomes. Thus, while the centrosome and the cytoskeleton of interphase cells were insensitive to geldanamycin, mitotic centrosomes cannot be properly formed in the presence of geldanamycin. […] Therefore, notwithstanding the possible contribution of other non-centrosomal functions of Hsp90 to some of these phenotypes, it is clear that the inhibition of the function of Hsp90 results in abnormalities in centrosome structure.

COC1=C2C[C@@H](C)C[C@H](OC)[C@H](O)[C@@H](C)/C=C(\C)[C@H](OC(N)=O)[C@@H](OC)/C=C\C=C(/C)C(=O)NC(=CC1=O)C2=O [geldanamycin]
cells containing misaligned chromosomes: About 50% | earliest treatment time at which aberrant mitotic spindles were detected: 1 h | mitotic figures that were aberrant (centrosomes, spindles and distribution of chromatin severely disrupted) (after 20 hours of treatment): More than 50%
